Test results taken from patent publication US6683085B2, “Salt form and polymorphs” (Pfizer Inc., priority 2000, dated 2004).
Counter-ions that a name gives are not always drawn.

How the values were obtained:
[1] = Solubility of the mesylate salt and free base forms; assay type: physicochemical
[2] = Hygroscopicity at 90% RH; assay type: physicochemical; conditions: for Hygroscopity % (w/w) at 90% RH: Table 4, polymorphic forms of the free base
[3] = Moisture sorption at 30° C. and 45% RH; assay type: physicochemical
[4] = Water content of the hydrated form of the free base; assay type: physicochemical
Description: The water content of the hydrated form of the free base (Form D) at ambient conditions is commonly of the order of 9 to 10% (w/w). This is equivalent to 2.5 to 2.8 moles of water per mole of the free base. […] The first mole was lost below 5% RH the second retained down to 1% RH see FIG. 11. It is likely that extended storage of the hydrated form below about 18% RH would result in dehydration. Furthermore, removal of the crystalline water results in the loss of the crystal lattice, the product being predominantly amorphous. This highlights a potential problem in using the conventional hydrated form in manufacturing a pharmaceutical formulation. Dehydration was observed on thermal analysis as a broad double endotherm at 97/113° C. (See FIG. 8)

[5] = Stability over a wide range of conditions; assay type: physicochemical; conditions: e.g. high light intensity
[6] = tested on: male and female Sprague-Dawley rats; assay: Daily oral administration to rats for 1 month; assay type: in vivo; conditions: rat, 30 mg/kg for 1 month

## COc1cc2nc(N3CCc4c(cccc4NS(C)(=O)=O)C3)nc(N)c2c(-c2ccccn2)c1OC [Form A, 4-Amino-6,7-dimethoxy-2-(5-methanesulfonamido-1,2,3,4-tetrahydroisoquinol-2-yl)-5-(2-pyridyl)quinazoline]
[1]; 0.9% sodium chloride at 22° C., listed as Free base (mpt 198° C.)
  Solubility: 36 micrograms/ml
[1]; Water at 22° C., listed as Free base (mpt 198° C.)
  Solubility: 420 micrograms/ml
[2]; 90% RH
  Hygroscopity % (w/w) at 90% RH: 2.2 % (w/w)
[3]; listed as Free base (mpt 198° C.)
  Moisture sorption (% w/w) at 30° C. and 45% RH: 1.39 % w/w

## COc1cc2nc(N3CCc4c(cccc4NS(C)(=O)=O)C3)nc(N)c2c(-c2ccccn2)c1OC [Form B, 4-Amino-6,7-dimethoxy-2-(5-methanesulfonamido-1,2,3,4-tetrahydroisoquinol-2-yl)-5-(2-pyridyl)quinazoline]
[2]; 90% RH
  Hygroscopity % (w/w) at 90% RH: 0.27 % (w/w)

## COc1cc2nc(N3CCc4c(cccc4NS(C)(=O)=O)C3)nc(N)c2c(-c2ccccn2)c1OC [Form D, 4-Amino-6,7-dimethoxy-2-(5-methanesulfonamido-1,2,3,4-tetrahydroisoquinol-2-yl)-5-(2-pyridyl)quinazoline, reference compound]
[1]; 0.9% sodium chloride at 22° C., listed as Hydrated form of free base
  Solubility: 4 micrograms/ml
[1]; Water at 22° C., listed as Hydrated form of free base
  Solubility: 12 micrograms/ml
[2]; 90% RH
  Hygroscopity % (w/w) at 90% RH: 12.8 % (w/w)
[3]; listed as Hydrated form of free base
  Moisture sorption (% w/w) at 30° C. and 45% RH: 11.24 % w/w
[4]; 90% RH
  Water content: 12.8 % (w/w)
  Water content, moles of water: 3.6 moles of water
[4]; ambient conditions
  Water content: 9 to 10 % (w/w)
  Water content, moles of water per mole of the free base: 2.5 to 2.8 moles of water per mole of the free base

## COc1cc2nc(N3CCc4c(cccc4NS(C)(=O)=O)C3)nc(N)c2c(-c2ccccn2)c1OC [Form E, 4-Amino-6,7-dimethoxy-2-(5-methanesulfonamido-1,2,3,4-tetrahydroisoquinol-2-yl)-5-(2-pyridyl)quinazoline]
[2]; 90% RH
  Hygroscopity % (w/w) at 90% RH: 0.045 % (w/w)

## COc1cc2nc(N3CCc4c(cccc4NS(C)(=O)=O)C3)nc(N)c2c(-c2ccccn2)c1OC [Mesylate salt, 4-amino-6,7-dimethoxy-2-(5-methanesulfonamido-1,2,3,4-tetrahydroisoquinol-2-yl)-5-(2-pyridyl)quinazoline mesylate]
[1]; 0.9% sodium chloride at 22° C., mesylate
  Solubility: 120 micrograms/ml
[1]; Water at 22° C., mesylate
  Solubility: 880 micrograms/ml
[2]; 90% RH, Table 1, mesylate salt
  Hygroscopicity % (w/w) at 90% RH: 1.1 % (w/w)
[2]; over a wide range of relative humidity, comparison in words
  Hygroscopicity compared with another form: substantially lower than the free base
[3]; listed as Mesylate salt (mpt 279° C.), mesylate
  Moisture sorption (% w/w) at 30° C. and 45% RH: 0.56 % w/w
[5]
  Stability: good stability
[6]
  Adverse effects: no evidence of adverse effects
  Changes linked to the pharmacological activity: induced changes linked to the pharmacological activity of the compound
